Test [1] concerns control human bronchial epithelial (HBE) cells. Kind of test: Gas-phase NO (gNO) accumulation above control HBE cultures in gas-tight liquid/gas-phase chamber. The test is classed as cell-based. As to conditions: for gas-phase level of NO: differentiated HBE, IFN-γ. Here is the method:
(§1) In preliminary studies, attempts were made to measure gNO release from well-differentiated cultures of HBE cells under the conditions described by Suresh et al. (21). Because some difficulties were encountered in obtaining a reproducible, gas-tight seal, both around the holes drilled in the plastic for the fittings and around the lid of the dish using parafilm, the procedure was modified in the following manner. First, 120 ml Teflon® jars (Savillex) were fitted with silicone O-rings to create a leak-proof seal. Two holes were drilled in the lid and fitted with stainless steel luer-lock adapters that were fastened tightly using stainless steel washers and nuts. The luer-lock adapters were fitted with two 3-way plastic stop-cocks to allow connections to be made to the Sievers 270B NO or other analyzers and room or zero air. Manufactured Teflon partition was inserted into the jar to hold the transwells containing cells and to separate the liquid compartment from the headspace.
(§2) For measurement of gNO production by HBE cultures, ALI media was added to each chamber. The apical surface of each culture was washed with 1 ml of PBS for 5 minutes at 37° C. to remove mucus and cell debris. Unless otherwise specified, 50 μl of PBS was added to the apical surface of the culture to provide a thin layer of ASL and allow cilia to beat freely. Three, 12 mm cultures were placed in each chamber, and the chambers were placed in a 37° C./5% CO2 incubator with the lids removed for 5 minutes to allow equilibration with incubator air. The lids were then replaced and tightened with both stop-cocks fully closed. After the appropriate incubation time, the chambers were removed from the incubator and connected to an NO analyzer. The stop-cocks were simultaneously opened to allow room air into the chamber while sample was being withdrawn into the analyzer for measurement. For these studies, NO was measured using a Sievers 280B nitric oxide analyzer with a flow rate of 40 ml/min. For the measurements of gNO production by nasal cultures the flow rate was increased to 500 ml/min. The analyzer was routinely calibrated using NO free air and nitric oxide standards, and zeroed before each experimental run. The level of NO was determined in room air and was usually <5 ppb. The analog output from the NO analyzer was directed into a MACLAB analog-digital converter and computer for data analyses and archiving. All NO measurements are reported as the peak concentration obtained during the sampling period, usually within the first 15 seconds.
(§3) Ciliated cells first become visible ˜14 days after establishment of an air-liquid interface, and the number of ciliated cells continues to increase with time so that by ˜31 days, the cultures typically consist of a multi-layered, pseudo-stratified, heavily ciliated epithelium, as illustrated in FIG. 1B. FIG. 1B is a micrograph 12 of differentiated cultures 14 consisting of a pseudo-stratified epithelium 16 stained with hematoxylin and eosin with abundant ciliated cells at the apical surface 18. To measure gas-phase NO (gNO) production, the apical surface of the cultures were washed, a small volume of PBS (50 ul) was added to wet the surface, and the cultures were incubated overnight (19-20 hours) in a gas-tight, NO inert, cell culture liquid/gas-phase chamber developed for the measurement of gNO (schematically shown in FIG. 2A).

For the next test, the system named is HBE cells. Kind of test: Total nitrate/nitrite (NOx) in basal media. As to conditions: cultures treated with IFN-γ. The format is cell-based, human. Here is the method: Measurements of total nitrite/nitrate in apical and basolateral media samples were performed using the Parameter kit (R&D Systems, Minneapolis, Minn.) according to the manufacturer's instructions. Briefly, a 0.5 ml sample of media was obtained from the basolateral chamber at the conclusion of the experiment and frozen at −20° C. until analyzed. Each sample was assayed in duplicate and compared to a standard curve, which was prepared in the same ALI media used to culture the cells.
Nitric oxide present in biological fluids rapidly reacts with other molecules to produce a variety of products. In aqueous solutions, nitrite and nitrate are two of the major metabolites of NO reaction. To determine if the level of NO products in the basal media increased in a similar manner as the levels of gNO, the total amount of nitrate/nitrite (NOx) in a subset of experiments using the Griese reaction was measured. As expected, the level of nitrate/nitrite in the media was higher in cultures treated with IFN-γ than in untreated cultures, averaging 9.3+/−3.1 μM in treated cultures compared to 2.0+/−0.5 μM in untreated cultures (p=0.005; donors=7, 3). The level of NOx in the media increased proportionally to the level of gNO, with a correlation coefficient of 0.74 (y=2.33x+0.28; R^2=0.74), as shown in the chart 92 in FIG. 9. […]

For test [2], the system named is CF human bronchial epithelial (HBE) cells. Description: Gas-phase NO (gNO) accumulation above CF HBE cultures in gas-tight liquid/gas-phase chamber. The format is cell-based. How it is done: as §1, §2
as §3, with “2A). […]” for “2A).”

For test [3], the system named is iNOS mRNA in cystic fibrosis (CF) HBE cells. Description: RT-PCR of iNOS mRNA in CF HBE cultures. The test is classed as cell-based, human. As to conditions: differentiated CF HBE stimulated with IFN-γ, qualitative RT-PCR.
Test [4] relates to iNOS mRNA in control (Normal) HBE cells. Kind of test: RT-PCR of NOS isoform RNA in control HBE cultures. The format is cell-based, human. How it is done:
To examine the effect of an inflammatory cytokine on NO production, well-differentiated cultures of normal HBE cells were treated with different concentrations of interferon-gamma (IFN-γ), a potent inducer of iNOS (7-10). Total RNA was isolated and RT-PCR was used to qualitatively assess the level of the NOS isoforms. […] To examine the effect of IFN-γ on gNO, well-differentiated cultures (mean age 128 days) of control HBE cells were treated with interferon-gamma (IFN-γ) overnight. Treatment with 100 ng/ml of IFN-γ increased the level of accumulated NO>50-fold (see FIG. 5), averaging 576+/−200 ppb (n=22; 8 donors). The IFN-γ induced increase in NO was highly significant (p=6.5×10E-6). Increased levels of iNOS RNA and gNO were observed as early as 6 hours after treatment (data not shown), and levels of NO continued to increase for at least 24 hours.

[5] abbreviates: undifferentiated control HBE cultures, IFN-γ treatment.

Several values for one entry are separate records, joined by “and”; a condition that tells them apart may be missing. Equal entries are not always repeated. Entries after “also recorded” stand apart in the source; their conditions may differ.

Consider two molecules from patent publication US20140370541A1, “CELL CULTURE LIQUID/GAS-PHASE CHAMBER DEVICES AND RELATED METHODS, AND EXEMPLARY USE FOR MEASURING ACCUMULATION OF GAS-PHASE NITRIC OXIDE IN DIFFERENTIATED CULTURES OF NORMAL AND CYSTIC FIBROSIS AIRWAY EPITHELIAL CELLS” (UNIVERSITY OF NORTH CAROLINA, priority 2012, published 2014).

As to `COC(=O)[C@@H](N)CCCNC(=N)N[N+](=O)[O-]` [L-NAME, reference compound], in test [1] (control HBE cells, preliminary experiment FIG. 4A, after IFN-γ treatment), the “inhibition of gNO production” value is listed as “inhibited completely”.
With interferon gamma [IFN-γ], in test [1] (6 hr incubation with 10 μL INF-γ (100 ng/ml) in HBSS medium, FIG. 4B), the “NO concentration” value was “marked elevation”. For the same molecule, the “gas-phase level of NO” value is reported as 379+/−210 ppb in test [1] (6 hours, 50 μL PBS); 6.6+/−5.6 ppb in test [1] (6 hours, submerged with 420 μL PBS); 1642.5+/−31 ppb in test [1] (20 hours, 50 μL PBS); 26.5+/−6.4 ppb in test [1] (20 hours, submerged with 420 μL PBS). In addition, in test [1] (differentiated control HBE cultures, 100 ng/ml IFN-γ), the “fold increase of accumulated gNO over baseline” value is > 50 fold and ~50 fold. Besides, in test [1] (differentiated control HBE cultures, 100 ng/ml IFN-γ overnight (19-20 hours), 50 μl PBS apical), the “level of accumulated gNO” value was 576 ppb and 576+/−200 ppb and > 500 ppb. Also, the “fold increase in gNO” value in test [1] (setting [5]) is around 2 fold. The “level of gNO” value in test [1] (setting [5]) is 9.5+/−3.3 ppb and ~10 ppb; in test [2] (differentiated CF HBE cultures, IFN-γ 100 ng/ml, 19-20 hours), 192 ppb and 192.3+/−68.9 ppb; in test [2] (differentiated CF cells stimulated with IFN-γ, submerged with 420 μl PBS), 11+/−4.3 ppb; in test [2] (differentiated CF cells stimulated with IFN-γ, submersion experiments, not submerged) it was 98+/−35 ppb; in test [2] (undifferentiated CF cells after stimulation with IFN-γ), 15.6+/−6.8 ppb. Also, the “effect on gNO” value in test [1] (undifferentiated cultures, IFN-γ treatment) is on record as “no significant effect”. Besides, the “level of nitrate/nitrite in the media” value with HBE cells was found to be 9.3 ± 3.1 µM. In addition, the “ratio of gNO, control cells versus CF cells after IFN-γ treatment” value in test [2] (differentiated cultures treated with IFN-γ) came out at 3 fold. In test [3], the iNOS expression entry is on record as “increase in iNOS expression”. Further, in test [4] (control HBE treated with IFN-γ, RT-PCR (not shown)), the “levels of nNOS and eNOS” value is given as “relatively unchanged”. Further, in test [4] (differentiated control HBE, increasing concentrations of IFN-γ, qualitative RT-PCR), the “level of iNOS RNA / iNOS expression” value is “induced iNOS expression; also recorded: clear increase”.
